Publication PMC11614538, “The proline-rich antimicrobial peptide B7-005: low bacterial resistance, safe for human cells and effective in zebrafish embryo bacteraemia model” (Open Biology, 2024)
Residues, ends and D or L forms follow the SMILES beside them.

Test system: zebrafish embryos
Assay: In vivo toxicity in zebrafish embryos
Settings: for mortality of larvae: within 72 h, groups of 30, at least three independent experiments
Procedure: All experimental procedures were performed in compliance with relevant laws and institutional guidelines and were performed under the Italian Ministerial Approval (code 1FF80.N.A5X). Zebrafish eggs were placed in E3 Medium (5 mM NaCl, 0.17 mM KCl, 0.33 mM CaCl2, 0.33 mM MgSO4) and incubated at 28°C. Twenty-four hours post-fertilization (hpf), the eggs were manually dechorionated. Later, embryos were placed in E3 Medium supplemented with a final concentration of 0.2 mM phenylthiourea (PTU, Sigma-Aldrich Co.) to inhibit the production of melanin. Forty-eight hpf embryos were anaesthetized using tricaine at a final concentration of 0.02% (v/v) and placed on agarose plates, to remove the excess water and to facilitate injections. Each condition for toxicity evaluation and bacteraemia model was tested on groups of 30 embryos in at least three independent experiments. Only for biodistribution assay, groups of 10 embryos were used for two independent experiments. The injections of peptide or bacteria were performed in a volume of 4.6 nl delivered in the duct of Cuvier of embryos using capillary glass and a Nanoject II Auto-Nanoliter Injector (Drummond Scientific Co., Broomall, PA, USA) and a SteREO Microscope Discovery.V8 (Zeiss, Oberkochen, Germany, UE).
In vivo toxicity of B7-005 was evaluated by injecting 4.6 nl of sterile PBS containing increasing concentrations of the peptide (up to 64 mg kg^−1) in the duct of Cuvier of embryos. PBS only was injected in untreated control groups. The toxicity of the compound was assessed evaluating the mortality of larvae, kept in E3 medium at 28°C, within 72 h after injection.

Compound: CC[C@H](C)[C@H](NC(=O)[C@H](CCCNC(=N)N)NC(=O)[C@@H](N)Cc1c[nH]c2ccccc12)C(=O)N[C@@H](CCCNC(=N)N)C(=O)N[C@@H](CCCNC(=N)N)C(=O)N[C@@H](CCCNC(=N)N)C(=O)N[C@@H](Cc1c[nH]c2ccccc12)C(=O)N1CCC[C@H]1C(=O)N[C@@H](CCCNC(=N)N)C(=O)N[C@@H](CC(C)C)C(=O)N1CCC[C@H]1C(=O)N[C@@H](CCCNC(=N)N)C(=O)N1CCC[C@H]1C(=O)N[C@@H](CCCNC(=N)N)C(=O)N[C@@H](Cc1c[nH]c2ccccc12)C(=O)N[C@@H](CCCNC(=N)N)C(=O)O [B7-005] (H-WRIRRRWPRLPRPRWR-OH)
- mortality of larvae (24 mg kg^−1, injected in duct of Cuvier, untreated control 10%): ≤ 20%
- mortality of larvae (32 mg kg^−1, injected in duct of Cuvier): ~ 40%
- lowest concentration significantly reducing viability of larvae (injected in duct of Cuvier, 72 h): 32 mg/kg
- highest tolerated amount (injected in duct of Cuvier, zebrafish embryos, 72 h): 24 mg/kg
